Measurements taken from paper PMC4775864 (Theranostics, 2016).
No end group written: not given here.

Biological target: T1, endogenous EMMPRIN (Mus musculus, UniProt P18572)
T1 sequence (P18572 22-273 isoform P18572-2 limits assumed): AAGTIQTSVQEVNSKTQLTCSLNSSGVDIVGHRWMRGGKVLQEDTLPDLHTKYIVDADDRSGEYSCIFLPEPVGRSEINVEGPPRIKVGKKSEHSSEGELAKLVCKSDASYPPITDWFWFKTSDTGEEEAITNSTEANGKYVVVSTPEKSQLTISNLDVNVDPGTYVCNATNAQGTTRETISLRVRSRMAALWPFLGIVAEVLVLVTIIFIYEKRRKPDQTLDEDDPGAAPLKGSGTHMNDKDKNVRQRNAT
Test: Affinity measurements: fluorescence binding to adherent HL1 cells

YKLPGHHHHYRP [AP-9]
Kd: 8 ± 0.6 nM
